# Laboratory results from patent publication US11529397B2, “Method of treating mucopolysaccharidosis type IVA” (Saint Louis University, priority 2018, dated 2022).
# Assays:
# [1] = system: splenocytes; assay: Splenocytes proliferation in Morquio A mouse models and WT mice treated by ERT (Example 9); assay type: cell-based
# Protocol: (§1) Morquio A mouse models: a). […] 14(22): p. 3321-35).c). Missense mutation mice (Galnstm (C76S) SLU C2) (Tomatsu et al. (2007) Mol Genet Metab., 91(3): p. 251-8), and wild-type C57BL6 mice were treated by ERT. […] A control group received PBS.
# (§2) The suspension was centrifuged at 1,000 rpm during 10 minutes.
# Thymidine incorporation was measured by β-Scintillation counter (Trilux Microbeta Counter) Mirano-Bascos, et al. (2010) J Virol. 84(7): p. 3303-11).
# [2] = system: splenocytes; assay: Secreted cytokines of splenocytes in Morquio A mouse models and WT mice treated by ERT (Examples 10-13); assay type: cell-based; details: for IL-4 secretion / IL-5 secretion: MTol mice
# Protocol: as §1, §2
# (§3) Cytokines were determined in the cell culture supernatants. […] Cells were centrifuged at 1000 rpm during 10 min. Secreted cytokines (IL-4, IL-5, IL-13, and IFN-γ) in the collected supernatants were detected by a bead immunoassay kit which allow the measurement of multiple proteins simultaneously (LUMINEX xMAP Technology, using a Millipore Milliplex™ kit) according to manufacturer's instructions.
# [3] = system: splenocytes; assay: Screening of peptides by splenocytes proliferation, retest in MKC mice (Examples 5-6); assay type: cell-based, mouse; details: MKC mice, 16, 22 and 24 infusions; with higher number of infusions
# Protocol: of body weight through the tail vein. A control group received PBS. […] The suspension was centrifuged at 1,000 rpm during 10 minutes. […] The specificity of cellular response against the peptides or the complete enzyme in the in vitro stimulation was determined by splenocyte proliferation or cytokine secretion in ERT treated mice or PBS injected control mice. […] 3H-Thymidine incorporation was measured by β-Scintillation counter (Trilux Microbeta Counter). Proliferation data are expressed as counts per minute (cpm) values (FIG. 5). (Mirano-Bascos et al. (2010) J Virol. 84(7): p. 3303-11).
# [4] = system: splenocytes; assay: Cytokine production by splenocytes after in vitro stimulation (Example 3); assay type: cell-based, mouse; details: splenocytes of MKC mice treated by ERT with GALNS; culture supernatant
# Protocol: (§4) Mice (MKC) genetically engineered not to express GALNS were used in these examples. […] 200 μl of the emulsion were administered as a subcutaneous injection. […] Control mice (n=2) were immunized with PBS emulsified in CFA and IFA respectively (Chung et al. (2005) J. Leukoc Biol. 77(6):906-13)). […] A control group (n=5) received PBS (Tomatsu et al. (2008) Hum Mol Genet. 15; 17(6):815-24). […]
# The production of cytokines after peptide stimulation was evaluated as intracellular staining (by flow cytometry) and secreted cytokines (by LUMINEX). […] The cells were treated with 1 μl of a protein transport inhibitor BD GolgiPlug™ during 5 h at 37° C., saturated humidity and 5% CO2. The suspension of cells was centrifuged at 1000 rpm during 10 minutes. The supernatants were collected by further analysis with LUMINEX. The Fc receptors were blocked with 1 μl of α-mouse CD16/32 (e-Bioscience) during 15 min at 4° C. After washing, the cells were stained with PE-Cy7-labeled anti-mouse CD4 and Alexa700-labeled anti-mouse CD8 antibodies during 30 min at 4° C. After two washes, cells were permeabilized with a BD fixation/permeabilization solution during 20 min at 4° C. Cells were washed two times and stained with a cocktail of antibodies for intracellular staining (PE-labeled anti-mouse IL-4, APC-labeled anti-mouse IL-5 and FITC-labeled anti-mouse IFN-γ). After two washes, cells were analyzed by flow cytometry. Secreted cytokines (IL-4, IL-5, IL-13, IL-17 and IFN-γ) in the collected supernatants were detected by using a bead immunoassay kit which allows the measurement of multiple proteins simultaneously (LUMINEX technology, using a Millipore Milliplex™ kit).
# [5] = system: splenocytes; assay: Secreted cytokine profile of splenocytes, retest in MKC mice (Example 7); assay type: cell-based, mouse; details: for IL-5 secretion, ERT treated vs PBS controls, p or significance / IL-13 secretion, ERT treated vs PBS controls, p or significance / profile of secreted cytokines, ERT treated vs PBS treated mice: MKC mice; for profile of secreted cytokines, ERT treated vs PBS treated mice: 16 i.v. infusions
# Protocol: The predicted peptides from Example 1 were reevaluated in MKC mice to reaffirm the selection of peptides 4, 8, and 10. […] A control group received PBS. […] The suspension was centrifuged at 1,000 rpm during 10 minutes. […] The specificity of cellular response against the peptides or the complete enzyme in the in vitro stimulation was determined by splenocyte proliferation or cytokine secretion in ERT treated mice or PBS injected control mice.
# as §3, with “1,000” for “1000”, “instructions (FIG. 5).” for “instructions.”
# [6] = system: splenocytes; assay: Splenocyte proliferation after in vitro stimulation with peptides or GALNS (Examples 2, 4); assay type: cell-based, mouse; details: for proliferation of splenocytes relative to age of the animal and length of treatment: MKC mice, weeks of infusion; for splenocyte proliferation response: splenocytes of MKC mice treated by ERT with GALNS, in vitro peptide stimulation
# Protocol: as §4
# Ten days after the last immunization or the last infusion, the mice were euthanized and the spleen was aseptically removed. […] The suspension was centrifuged at 1000 rpm […]. The red blood cells were lysed using a hypotonic lysis buffer (Sigma® R7757). […] Cells were pulsed with 1 JpCi of [3H]thymidine for the last 18 h of incubation. [3H]thymidine incorporation was measured by […] (Trilux Microbeta Counter). The Stimulation Index (SI) was calculated as the mean value of the three wells for each condition divided by the mean value of the unstimulated cells (Mirano-Bascos (2010) J Virol. 84(7):3303-11).
Sequence,"splenocytes proliferation, ERT treated vs PBS controls ([1]; C2 mice)","splenocytes proliferation, ERT treated vs PBS controls ([1]; MKC mice)","splenocytes proliferation, ERT treated vs PBS controls ([1]; WT mice)",IL-4 secretion [2],IL-5 secretion [2],IFN-γ secretion compared with the other stimuli ([2]; mice treated by ERT),relationship between number of weekly i.v. infusions and cpm values of splenocytes proliferation [3],secretion of cytokines IL-5 and IFN-γ [4],"IL-5 secretion, ERT treated vs PBS controls, p or significance [5]","IL-13 secretion, ERT treated vs PBS controls, p or significance [5]",levels of secreted IFN-γ among the peptides and GALNS ([5]; MKC mice treated by ERT),"profile of secreted cytokines, ERT treated vs PBS treated mice [5]",proliferation of splenocytes relative to age of the animal and length of treatment [6],splenocyte proliferation response [6],"IFN-γ secretion, MKC vs MTol mice treated by ERT, p or significance [2]","IFN-γ secretion, ERT treated vs PBS controls of the same strain ([2]; all mice (MKC, C2, WT, MTol))","IL-5 secretion, ERT treated vs PBS controls ([2]; any of the mice models)"
PNCHFGPYDNKARPNIPVYR (listed as Homo sapiens) [Peptide C4],statistically significant difference,statistically significant,statistically significant difference,did not present secretion of IL-4,did not present secretion of IL-5,strongest response,lower levels of proliferation,strong response,0.028,not statistically significant,highest levels,statistically significant difference,highest response at 16 weeks,strong response,,,
FFLYWAVDATHAPVYASKPF (listed as Homo sapiens) [Peptide E8],statistically significant difference,statistically significant,statistically significant difference,did not present secretion of IL-4,did not present secretion of IL-5,,lower levels of proliferation,strong response,did not induce a significant IL-5 response,not statistically significant,,statistically significant difference,highest response at 16 weeks,strong response,not statistically significant,statistically significant levels,did not induce IL-5 secretion
